{"source": "paper PMC5218480", "about": "(PLoS ONE, 2017)", "tested_on": "MV-4-11 cells", "assay": "Gene expression microarray analysis (Affymetrix PrimeView) and GSEA", "type": "cell-based, human", "parameters": "RFU PODN (11730768_x_at) / Fold change /veh PODN (11730768_x_at) / RFU LINC00158 (11744669_a_at) / Fold change /veh LINC00158 (11744669_a_at) / RFU DUSP10 (11751237_a_at) / Fold change /veh DUSP10 (11751237_a_at) / RFU ID3 (11757404_x_at) / Fold change /veh ID3 (11757404_x_at) / RFU PLEKHG5 (11737974_s_at) / Fold change /veh PLEKHG5 (11737974_s_at) / RFU LRRC4B (11730491_at) / Fold change /veh LRRC4B (11730491_at) / RFU GIMAP4 (11747438_a_at) / Fold change /veh GIMAP4 (11747438_a_at) / RFU KRT8 (11758183_x_at) / Fold change /veh KRT8 (11758183_x_at) / RFU CNN1 (11734310_a_at) / Fold change /veh CNN1 (11734310_a_at) / RFU VPS37D (11726825_at) / Fold change /veh VPS37D (11726825_at) / RFU C10orf10 (11716522_x_at) / Fold change /veh C10orf10 (11716522_x_at) / RFU KIR2DL2 /// KIR2DL4 /// KIR2DL5A /// KIR2DL5B /// KIR2DS1 /// KIR2DS2 /// KIR2DS3 /// KIR2DS4 /// KIR3DL3 /// KIR3DL3 /// KIR3DS1 (11738374_at) / Fold change /veh KIR2DL2 /// KIR2DL4 /// KIR2DL5A /// KIR2DL5B /// KIR2DS1 /// KIR2DS2 /// KIR2DS3 /// KIR2DS4 /// KIR3DL3 /// KIR3DL3 /// KIR3DS1 (11738374_at) / RFU C1QL1 (11718748_at) / Fold change /veh C1QL1 (11718748_at) / RFU TMPRSS4 (11747572_a_at) / Fold change /veh TMPRSS4 (11747572_a_at) / RFU HAMP (11756126_x_at) / Fold change /veh HAMP (11756126_x_at) / RFU RNFT2 (11725882_a_at) / Fold change /veh RNFT2 (11725882_a_at) / RFU NR4A2 (11747474_a_at) / Fold change /veh NR4A2 (11747474_a_at) / RFU ABCC12 (11746883_a_at) / Fold change /veh ABCC12 (11746883_a_at) / RFU TMEM136 (11760407_x_at) / Fold change /veh TMEM136 (11760407_x_at) / RFU CLDN22 /// WWC2 (11732394_at) / Fold change /veh CLDN22 /// WWC2 (11732394_at) / RFU HLA-DPB1 (11760878_x_at) / Fold change /veh HLA-DPB1 (11760878_x_at) / RFU SPINT1 (11716480_a_at) / Fold change /veh SPINT1 (11716480_a_at) / RFU GAP43 (11754022_s_at) / Fold change /veh GAP43 (11754022_s_at) / RFU A4GNT (11735810_at) / Fold change /veh A4GNT (11735810_at) / RFU PRB3 (11715151_x_at) / Fold change /veh PRB3 (11715151_x_at) / RFU TUBB4B (11761932_at) / Fold change /veh TUBB4B (11761932_at) / RFU CAPN14 (11732068_a_at) / Fold change /veh CAPN14 (11732068_a_at) / RFU TMCC2 (11721928_a_at) / Fold change /veh TMCC2 (11721928_a_at) / RFU IRGQ (11745062_a_at) / Fold change /veh IRGQ (11745062_a_at) / RFU FAM174B (11720279_a_at) / Fold change /veh FAM174B (11720279_a_at) / RFU TMPRSS4 (11748680_a_at) / Fold change /veh TMPRSS4 (11748680_a_at) / RFU FAM212B (11763350_a_at) / Fold change /veh FAM212B (11763350_a_at) / RFU PLEKHG5 (11743358_a_at) / Fold change /veh PLEKHG5 (11743358_a_at) / RFU ZSCAN30 (11745921_a_at) / Fold change /veh ZSCAN30 (11745921_a_at) / RFU CMKLR1 (11741424_a_at) / Fold change /veh CMKLR1 (11741424_a_at) / RFU LOC101060620 /// MAPK8IP1 (11723275_at) / Fold change /veh LOC101060620 /// MAPK8IP1 (11723275_at) / RFU SPTSSB (11747773_x_at) / Fold change /veh SPTSSB (11747773_x_at) / RFU PRSS12 (11739890_at) / Fold change /veh PRSS12 (11739890_at) / RFU BIN1 (11741810_x_at) / Fold change /veh BIN1 (11741810_x_at) / RFU WNT11 (11732464_a_at) / Fold change /veh WNT11 (11732464_a_at) / RFU C10orf10 (11716521_a_at) / Fold change /veh C10orf10 (11716521_a_at) / RFU C5orf56 (11738089_at) / Fold change /veh C5orf56 (11738089_at) / RFU CYB561 (11721691_x_at) / Fold change /veh CYB561 (11721691_x_at) / RFU ANKRD19P (11752326_a_at) / Fold change /veh ANKRD19P (11752326_a_at) / RFU OR2T12 /// OR2T33 /// OR2T8 (11738714_s_at) / Fold change /veh OR2T12 /// OR2T33 /// OR2T8 (11738714_s_at) / RFU VCAN (11748164_a_at) / Fold change /veh VCAN (11748164_a_at) / RFU JSRP1 (11732532_at) / Fold change /veh JSRP1 (11732532_at) / RFU KRTAP10-11 (11738290_x_at) / Fold change /veh KRTAP10-11 (11738290_x_at) / RFU MYO3A (11730013_a_at) / Fold change /veh MYO3A (11730013_a_at) / RFU EBF3 (11725865_a_at) / Fold change /veh EBF3 (11725865_a_at) / RFU CAMK2N1 (11719241_x_at) / Fold change /veh CAMK2N1 (11719241_x_at) / RFU C5orf56 (11738088_a_at) / Fold change /veh C5orf56 (11738088_a_at) / RFU OLFML3 (11715873_a_at) / Fold change /veh OLFML3 (11715873_a_at) / RFU LOC100653217 /// NTM (11731650_a_at) / Fold change /veh LOC100653217 /// NTM (11731650_a_at) / RFU MAPK11 (11762145_a_at) / Fold change /veh MAPK11 (11762145_a_at) / RFU FIZ1 (11724087_x_at) / Fold change /veh FIZ1 (11724087_x_at) / RFU OASL (11726364_x_at) / Fold change /veh OASL (11726364_x_at) / RFU SOX15 (11748057_x_at) / Fold change /veh SOX15 (11748057_x_at) / RFU CD79A (11719716_a_at) / Fold change /veh CD79A (11719716_a_at) / RFU HIST1H1D (11736915_at) / Fold change /veh HIST1H1D (11736915_at) / RFU CASKIN2 (11723855_a_at) / Fold change /veh CASKIN2 (11723855_a_at) / RFU LOC730098 (11760151_x_at) / Fold change /veh LOC730098 (11760151_x_at) / RFU OR4N2 (11742367_at) / Fold change /veh OR4N2 (11742367_at) / RFU PRRT2 (11749266_a_at) / Fold change /veh PRRT2 (11749266_a_at) / RFU SNX32 (11753110_a_at) / Fold change /veh SNX32 (11753110_a_at) / RFU CDHR5 (11726645_a_at) / Fold change /veh CDHR5 (11726645_a_at) / RFU RCAN1 (11760418_a_at) / Fold change /veh RCAN1 (11760418_a_at) / RFU FAM167A (11723789_a_at) / Fold change /veh FAM167A (11723789_a_at) / RFU FAM26E (11764081_at) / Fold change /veh FAM26E (11764081_at) / RFU ISYNA1 (11749810_s_at) / Fold change /veh ISYNA1 (11749810_s_at) / RFU ACY1 (11761880_at) / Fold change /veh ACY1 (11761880_at) / RFU 11764098_at / Fold change /veh 11764098_at / RFU SAMD14 (11745864_x_at) / Fold change /veh SAMD14 (11745864_x_at) / RFU NPB (11741838_a_at) / Fold change /veh NPB (11741838_a_at) / RFU TMPRSS6 (11731388_a_at) / Fold change /veh TMPRSS6 (11731388_a_at) / RFU KRTAP10-2 (11738614_at) / Fold change /veh KRTAP10-2 (11738614_at) / RFU ARHGAP8 /// PRR5-ARHGAP8 (11727945_x_at) / Fold change /veh ARHGAP8 /// PRR5-ARHGAP8 (11727945_x_at) / RFU KRTAP5-7 /// NADSYN1 (11734609_at) / Fold change /veh KRTAP5-7 /// NADSYN1 (11734609_at) / RFU RASL12 (11751679_a_at) / Fold change /veh RASL12 (11751679_a_at) / RFU CDKN2B (11736163_a_at) / Fold change /veh CDKN2B (11736163_a_at) / RFU PRF1 (11729649_at) / Fold change /veh PRF1 (11729649_at) / RFU, ZNF638 /// ZNF638-IT1 / Fold change vs veh, ZNF638 /// ZNF638-IT1 / RFU, PANK3 / Fold change vs veh, PANK3 / RFU, SH3YL1 / Fold change vs veh, SH3YL1 / RFU, ZEB2 / Fold change vs veh, ZEB2 / RFU, NRIP1 / Fold change vs veh, NRIP1 / RFU, PTTG1IP / Fold change vs veh, PTTG1IP / RFU, CAPN2 / Fold change vs veh, CAPN2 / RFU, MED14 / Fold change vs veh, MED14 / RFU, SNORA58 / Fold change vs veh, SNORA58 / RFU, C1orf63 / Fold change vs veh, C1orf63 / RFU, LRRFIP1 / Fold change vs veh, LRRFIP1 / RFU, NDUFAF7 / Fold change vs veh, NDUFAF7 / RFU, SLC12A2 / Fold change vs veh, SLC12A2 / RFU, IBTK / Fold change vs veh, IBTK / RFU, ESF1 / Fold change vs veh, ESF1 / Fold change vs veh, TMEM50B / RFU, TAOK1 / Fold change vs veh, TAOK1 / RFU, ACBD3 / Fold change vs veh, ACBD3 / RFU, TMA16 / Fold change vs veh, TMA16 / RFU, RWDD3 / Fold change vs veh, RWDD3 / RFU, BCAT1 / Fold change vs veh, BCAT1 / RFU, EDEM3 / Fold change vs veh, EDEM3 / RFU, TMEM33 / Fold change vs veh, TMEM33 / RFU, WDR75 / Fold change vs veh, WDR75 / RFU, AHCTF1 / Fold change vs veh, AHCTF1 / RFU, TFRC / Fold change vs veh, TFRC / RFU, ZDHHC17 / Fold change vs veh, ZDHHC17 / RFU, NOM1 / Fold change vs veh, NOM1 / RFU, ARL8B / Fold change vs veh, ARL8B / RFU, ZBTB11 / Fold change vs veh, ZBTB11 / RFU, TAMM41 / Fold change vs veh, TAMM41 / RFU, KIAA1704 /// LOC100996395 / Fold change vs veh, KIAA1704 /// LOC100996395 / RFU, ING1 / Fold change vs veh, ING1 / RFU, TRMT61B / Fold change vs veh, TRMT61B / RFU, FUBP3 / Fold change vs veh, FUBP3 / RFU, TP53 / Fold change vs veh, TP53 / RFU, TNKS2 / Fold change vs veh, TNKS2 / RFU, ZFP14 / Fold change vs veh, ZFP14 / RFU, ACTR2 / Fold change vs veh, ACTR2 / RFU, PPP3R1 / Fold change vs veh, PPP3R1 / RFU, PIK3R1 / Fold change vs veh, PIK3R1 / RFU, HNRNPA1 / Fold change vs veh, HNRNPA1 / RFU, RNF170 / Fold change vs veh, RNF170 / RFU, ZNF28 / Fold change vs veh, ZNF28 / RFU, RNGTT / Fold change vs veh, RNGTT / RFU, OGT / Fold change vs veh, OGT / RFU, BRD1 / Fold change vs veh, BRD1 / RFU, MARS / Fold change vs veh, MARS / RFU, ZNF655 / Fold change vs veh, ZNF655 / RFU, FAHD1 / Fold change vs veh, FAHD1 / RFU, BDP1 / Fold change vs veh, BDP1 / RFU, LRRCC1 / Fold change vs veh, LRRCC1 / RFU, ARID1A / Fold change vs veh, ARID1A / RFU, ZNF146 / Fold change vs veh, ZNF146 / RFU, ZNF330 / Fold change vs veh, ZNF330 / RFU, GPN3 / Fold change vs veh, GPN3 / RFU, C9orf123 / Fold change vs veh, C9orf123 / RFU, N4BP2L2 / Fold change vs veh, N4BP2L2 / RFU, ARFIP1 / Fold change vs veh, ARFIP1 / RFU, FAM179B / Fold change vs veh, FAM179B / RFU, BCL10 / Fold change vs veh, BCL10 / RFU, UHRF1BP1L / Fold change vs veh, UHRF1BP1L / RFU, BET1 / Fold change vs veh, BET1 / RFU, CNOT2 / Fold change vs veh, CNOT2 / RFU, ZNF268 / Fold change vs veh, ZNF268 / Fold change vs veh, ZNF507 / RFU, DGCR2 / Fold change vs veh, DGCR2 / RFU, WDSUB1 / Fold change vs veh, WDSUB1 / Fold change vs veh, HSP90B1 /// MIR3652 / RFU, ADSS / Fold change vs veh, ADSS / RFU, GK / Fold change vs veh, GK / RFU, ZNF148 / Fold change vs veh, ZNF148 / RFU, TAF9 / Fold change vs veh, TAF9 / RFU, SLC1A5 / Fold change vs veh, SLC1A5 / RFU, SLMO2 / Fold change vs veh, SLMO2 / RFU, ABCC4 / Fold change vs veh, ABCC4 / RFU, LOC101060439 /// RAP1B / Fold change vs veh, LOC101060439 /// RAP1B / RFU, RFX7 / Fold change vs veh, RFX7 / RFU, GTPBP10 / Fold change vs veh, GTPBP10 / RFU, CNEP1R1 / Fold change vs veh, CNEP1R1 / RFU, BIVM-ERCC5 /// ERCC5 / Fold change vs veh, BIVM-ERCC5 /// ERCC5 / RFU, ILF3 / Fold change vs veh, ILF3 / RFU 11762660_at / Fold change /veh 11762660_at / RFU VCAN (11757783_s_at) / Fold change /veh VCAN (11757783_s_at) / RFU DDX43 (11728927_at) / Fold change /veh DDX43 (11728927_at) / RFU KRT8 (11758188_x_at) / Fold change /veh KRT8 (11758188_x_at) / RFU NKD1 (11759106_at) / Fold change /veh NKD1 (11759106_at) / RFU SRD5A1 (11742802_a_at) / Fold change /veh SRD5A1 (11742802_a_at) / RFU TPSAB1 /// TPSB2 (11721975_s_at) / Fold change /veh TPSAB1 /// TPSB2 (11721975_s_at) / RFU GSTM3 (11746129_a_at) / Fold change /veh GSTM3 (11746129_a_at) / RFU IL23R (11737362_x_at) / Fold change /veh IL23R (11737362_x_at) / RFU TMEM51 (11727254_a_at) / Fold change /veh TMEM51 (11727254_a_at) / RFU PIWIL2 (11732686_x_at) / Fold change /veh PIWIL2 (11732686_x_at) / RFU ORM1 (11744905_x_at) / Fold change /veh ORM1 (11744905_x_at) / RFU CCDC152 (11743942_at) / Fold change /veh CCDC152 (11743942_at) / RFU ECM1 (11717891_a_at) / Fold change /veh ECM1 (11717891_a_at) / RFU IL23R (11748794_a_at) / Fold change /veh IL23R (11748794_a_at) / RFU TNFAIP8L3 (11732012_x_at) / Fold change /veh TNFAIP8L3 (11732012_x_at) / RFU MBOAT4 (11741988_at) / Fold change /veh MBOAT4 (11741988_at) / RFU 11764193_at / Fold change /veh 11764193_at / RFU TMEM53 (11763286_at) / Fold change /veh TMEM53 (11763286_at) / RFU MAGEB2 (11727129_at) / Fold change /veh MAGEB2 (11727129_at) / RFU TMEM200A (11744735_a_at) / Fold change /veh TMEM200A (11744735_a_at) / RFU CCDC152 (11751479_a_at) / Fold change /veh CCDC152 (11751479_a_at) / RFU FAM211A (11726209_a_at) / Fold change /veh FAM211A (11726209_a_at) / RFU RGS16 (11746705_a_at) / Fold change /veh RGS16 (11746705_a_at) / RFU VCAN (11755009_s_at) / Fold change /veh VCAN (11755009_s_at) / RFU RHOB (11743442_s_at) / Fold change /veh RHOB (11743442_s_at) / RFU RGS16 (11720943_a_at) / Fold change /veh RGS16 (11720943_a_at) / RFU RGS16 (11720944_at) / Fold change /veh RGS16 (11720944_at) / RFU, VPS4B / Fold change vs veh, VPS4B / RFU, CREB1 / Fold change vs veh, CREB1 / RFU, DNAJC13 / Fold change vs veh, DNAJC13 / RFU, GNAQ / Fold change vs veh, GNAQ / RFU, CDK5R1 / Fold change vs veh, CDK5R1 / RFU, ZRANB3 / Fold change vs veh, ZRANB3 / RFU, CUL4A / Fold change vs veh, CUL4A / RFU, CCNY / Fold change vs veh, CCNY / RFU, UFL1 / Fold change vs veh, UFL1 / RFU, COG3 / Fold change vs veh, COG3 / RFU, DIAPH2 / Fold change vs veh, DIAPH2 / RFU, SKA2 / Fold change vs veh, SKA2 / RFU, AFF3 / Fold change vs veh, AFF3 / RFU, LMF1 / Fold change vs veh, LMF1 / RFU, IPO11 / Fold change vs veh, IPO11 / RFU, DFFB / Fold change vs veh, DFFB / RFU, FOXP1 / Fold change vs veh, FOXP1 / RFU, CARD8 / Fold change vs veh, CARD8 / RFU, STRN3 / Fold change vs veh, STRN3 / RFU, ADK / Fold change vs veh, ADK / RFU, RASSF2 / Fold change vs veh, RASSF2 / RFU, WIPF1 / Fold change vs veh, WIPF1 / RFU, LARP1B / Fold change vs veh, LARP1B / RFU, RASA1 / Fold change vs veh, RASA1 / RFU, RB1 / Fold change vs veh, RB1 / RFU, PPFIA1 / Fold change vs veh, PPFIA1 / RFU, MAT2A / Fold change vs veh, MAT2A / RFU, CCT5 / Fold change vs veh, CCT5 / RFU, WDR92 / Fold change vs veh, WDR92 / RFU, CUX1 / Fold change vs veh, CUX1 / RFU, TTC7A / Fold change vs veh, TTC7A / RFU, TMEM135 / Fold change vs veh, TMEM135 / RFU, DEPTOR / Fold change vs veh, DEPTOR / RFU, CPM / Fold change vs veh, CPM / RFU, DNAJB6 / Fold change vs veh, DNAJB6 / RFU, CACNA2D3 / Fold change vs veh, CACNA2D3 / RFU, DTX4 / Fold change vs veh, DTX4 / RFU, TFCP2 / Fold change vs veh, TFCP2 / RFU, GMCL1 /// GMCL1P1 / Fold change vs veh, GMCL1 /// GMCL1P1 / RFU, AEBP2 / Fold change vs veh, AEBP2 / RFU, SNHG1 /// SNORD22 /// SNORD25 /// SNORD26 /// SNORD27 /// SNORD28 /// SNORD29 /// SNORD31 / Fold change vs veh, SNHG1 /// SNORD22 /// SNORD25 /// SNORD26 /// SNORD27 /// SNORD28 /// SNORD29 /// SNORD31 / Fold change (Aza/veh), C12orf56 (ProbeSet 11735607_a_at) / Fold change (ACY-1035/veh), C12orf56 (ProbeSet 11735607_a_at) / Fold change (Aza/veh), FGFR1OP (ProbeSet 11751329_s_at) / Fold change (ACY-1035/veh), FGFR1OP (ProbeSet 11751329_s_at) / Fold change (Aza/veh), VPS36 (ProbeSet 11739960_a_at) / Fold change (ACY-1035/veh), VPS36 (ProbeSet 11739960_a_at) / RFU SYPL1 (11715823_x_at) / Fold change /veh SYPL1 (11715823_x_at) / RFU IGFBP7 (11715501_s_at) / Fold change /veh IGFBP7 (11715501_s_at) / RFU REEP3 (11722064_at) / Fold change /veh REEP3 (11722064_at) / RFU IGLL1 (11728026_x_at) / Fold change /veh IGLL1 (11728026_x_at): dose or concentration left out as unconfirmed", "conditions": "MV-4-11 cells, 48 hours"}
{"smiles": "Nc1ncn([C@@H]2O[C@H](CO)[C@@H](O)[C@H]2O)c(=O)n1", "note": "[azacitidine]", "values": [{"measurement": "RFU FAM211A (11726209_a_at)", "value": 7.10, "unit": "RFU"}]}
